Data reported in EP0341019A2, “Polyether antibiotic” (priority 1988, dated 1989).
Converted amounts (≈) assume the structure as drawn.

Key:
Assay type in all cases: cell-based
[1] = system: Staphylococcus aureus X1.1; details: X1.1, 24 h
[2] = system: Staphylococcus aureus V41; details: V41, 24 h
[3] = system: Peptostreptococcus anaerobius 1451; details: Peptostreptococcus anaerobius, 1451, 24 h
[4] = system: Peptococcus prevoti 1281; details: 24 h
[5] = system: Staphylococcus epidermidis 222; details: Staphylococcus epidermidis, 222, 24 h
[6] = system: Great Lakes influenza virus; details: tissue culture
[7] = system: Eubacterium aerofaciens 1235; details: Collinsella aerofaciens, 1235, 24 h
[8] = system: Salmonella sp; details: 24-hour incubation
Excerpt: (§1) The formula 1 compounds (A82810 compounds) have antibacterial and anticoccidial activity. A82810 compounds are especially active against anaerobic bacteria. […]

[9] = system: Clostridium septicum 1128; details: 24-hour incubation
Excerpt: as §1

[10] = system: Clostridium difficile 2994; details: Clostridioides difficile, 24-hour incubation
Excerpt: as §1

Structure (SMILES): CC[C@@H](O)[C@]1(C)C[C@H](C)[C@@](O)([C@H]2C[C@H](C)[C@H]([C@]3(C)C[C@@H](O[C@H]4CC[C@H](OC)[C@@H](C)O4)[C@H]([C@]4(C)CC[C@@]5(O[C@H]([C@@H](C)[C@@H](OC)[C@H](C)C(=O)O)[C@H](C)[C@@H](OC)[C@H]5C)O4)O3)O2)O1 [Example A82810]
- MIC [1]: 1 µg/mL (≈ 1.19 µM)
- MIC [2]: 1 µg/mL (≈ 1.19 µM)
- MIC [3]: ≤ 0.25 µg/mL
- MIC [4]: ≤ 0.25 µg/mL
- MIC [5]: 0.5 µg/mL (≈ 0.593 µM)
- active at a level of [6]: 250 µg/mL
- MIC [7]: ≤ 0.25 µg/mL
- MIC [8]: > 128 µg/mL
- MIC [9]: 0.5 µg/mL (≈ 0.593 µM)
- MIC [10]: 0.5 µg/mL (≈ 0.593 µM)
